Our source for the IC50 values is patent US11655235B2, “Pyrrolidine and piperidine compounds” (YUHAN CORPORATION, priority 2019, dated 2023).

By IC50 is commonly meant the concentration that gives 50% inhibition.

One assay deals with DPP4 (Homo sapiens, UniProt P27487). Briefly: DPP4 inhibition, fluorogenic substrate H-Gly-Pro-AMC. It is filed as biochemical. Also on record: purchased R&D Systems. The note with it: recombinant human DPP4.
Another assay addresses T1, Recombinant human FAP (Homo sapiens, UniProt Q12884).
T1 construct: purchased R&D systems
T1 sequence (Q12884 1-760): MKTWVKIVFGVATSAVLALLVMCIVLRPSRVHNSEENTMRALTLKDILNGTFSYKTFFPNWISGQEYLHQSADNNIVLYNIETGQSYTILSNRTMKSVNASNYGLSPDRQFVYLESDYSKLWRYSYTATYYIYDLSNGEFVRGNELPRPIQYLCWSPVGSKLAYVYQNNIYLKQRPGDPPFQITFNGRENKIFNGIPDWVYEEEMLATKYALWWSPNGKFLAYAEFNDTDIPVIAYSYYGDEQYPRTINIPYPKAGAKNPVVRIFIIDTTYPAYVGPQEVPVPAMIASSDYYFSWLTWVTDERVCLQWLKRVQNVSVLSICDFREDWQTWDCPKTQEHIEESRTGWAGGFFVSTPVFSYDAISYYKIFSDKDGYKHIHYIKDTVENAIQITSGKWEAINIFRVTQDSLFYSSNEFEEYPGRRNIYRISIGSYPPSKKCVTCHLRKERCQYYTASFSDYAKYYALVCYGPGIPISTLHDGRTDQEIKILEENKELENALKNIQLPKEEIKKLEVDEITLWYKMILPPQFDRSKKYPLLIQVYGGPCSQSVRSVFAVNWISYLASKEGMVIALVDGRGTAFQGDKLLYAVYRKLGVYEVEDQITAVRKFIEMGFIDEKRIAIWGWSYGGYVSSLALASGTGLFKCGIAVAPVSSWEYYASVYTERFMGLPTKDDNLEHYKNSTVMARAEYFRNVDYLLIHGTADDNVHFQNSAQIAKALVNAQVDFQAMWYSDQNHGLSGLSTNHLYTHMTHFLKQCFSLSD
Briefly: FAP FRET assay, FGF21-sequence FRET peptide substrate. The format is biochemical. The conditions noted are these: FRET peptide with human FGF21 sequence, 6 μM, 37° C. The procedure: The compounds according to the present technology were evaluated in terms of the inhibitory effect on the activity of dipeptidyl peptidases including FAP by using a substrate producing fluorescent substances upon enzymatic decomposition. The test was conducted at 25° C. to get a final reaction volume of 100 μL in a 96 black well plate. […] Briefly, the test compounds were dissolved in dimethyl sulfoxide (DMSO) at a concentration of 20 mM and then subjected to serial dilution, thereby creating an 8 point curve. As for the control group, a 6 point curve created by serial dilution of Talabostat in the same buffer solution was used. Fluorescence intensity was measured using a microplate reader (Flexstation3, Molecular Devices) under the wavelength condition exciting at 380 nm and reading the emission at 460 nm. The inhibitory effect of the test compounds was measured as a decrease (%) in the signal rate as compared to the control group without any inhibitor. Data was fixed to a logistic model with four variables and IC50 value was calculated using GraphPad Prism program. For the FAP FRET assay, recombinant human FAP (R&D systems) was diluted with 50 mM HEPES (pH 7.2) buffer comprising 150 mM of sodium chloride, 0.1 mg/ml of bovine serum albumin (BSA) and 1 mM EDTA to be 10 ng per final reaction. The test compounds were subjected to serial dilution in a buffer under the condition containing up to 0.1% of DMSO. FRET peptides containing human FGF21 sequence ([…]) conjugated with HyLite Fluor 488 and dark quencher QXL 520 (Anaspec) was used as a substrate. By dissolving in DMSO and then diluting in the same buffer, the substrate was added to be 6 μM per final reaction. All reactions of FRET assay was conducted at 37° C.

DPP4, sequence (P27487 whole entry): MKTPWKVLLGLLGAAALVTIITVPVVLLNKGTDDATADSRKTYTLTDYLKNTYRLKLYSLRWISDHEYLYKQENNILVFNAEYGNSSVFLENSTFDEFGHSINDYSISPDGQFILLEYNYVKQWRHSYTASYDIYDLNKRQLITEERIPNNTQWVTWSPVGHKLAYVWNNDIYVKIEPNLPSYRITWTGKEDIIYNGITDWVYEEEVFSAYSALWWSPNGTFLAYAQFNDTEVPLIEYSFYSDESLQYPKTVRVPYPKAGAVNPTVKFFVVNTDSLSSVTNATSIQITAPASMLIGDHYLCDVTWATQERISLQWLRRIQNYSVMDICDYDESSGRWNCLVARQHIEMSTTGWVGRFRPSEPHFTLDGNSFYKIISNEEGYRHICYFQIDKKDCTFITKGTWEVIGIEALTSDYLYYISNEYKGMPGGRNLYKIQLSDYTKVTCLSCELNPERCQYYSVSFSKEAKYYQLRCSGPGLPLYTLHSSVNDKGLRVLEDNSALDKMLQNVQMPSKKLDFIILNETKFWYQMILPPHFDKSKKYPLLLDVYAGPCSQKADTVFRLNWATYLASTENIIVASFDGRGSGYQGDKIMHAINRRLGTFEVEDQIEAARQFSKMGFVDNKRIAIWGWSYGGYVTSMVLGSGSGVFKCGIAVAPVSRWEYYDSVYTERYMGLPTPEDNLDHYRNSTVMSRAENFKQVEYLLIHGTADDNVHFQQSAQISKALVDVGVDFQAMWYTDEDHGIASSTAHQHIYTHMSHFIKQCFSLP

For `COc1cccc2cc(NC3CCN(CC(=O)N4C[C@@H](F)C[C@H]4C#N)CC3)cnc12` [Example 367, (2S,4S)-4-fluoro-1-[2-[4-[(8-methoxy-3-quinolyl)amino]-1-piperidyl]acetyl]pyrrolidine-2-carbonitrile], the IC50 was not below 10000 nM on DPP4 and 28.1 nM on Recombinant human FAP.
Take `N#C[C@@H]1C[C@H](F)CN1C(=O)CN1CCC(Nc2cnc3ncccc3c2)CC1` [Example 368, (2S,4S)-4-fluoro-1-[2-[4-(1,8-naphthyridin-3-ylamino)-1-piperidyl]acetyl]pyrrolidine-2-carbonitrile]: the IC50 at DPP4 is not below 10000 nM; at Recombinant human FAP it was 36.7 nM.
With `N#C[C@@H]1C[C@H](F)CN1C(=O)CN1CCC(Nc2cnc3nc(Cl)ccc3c2)CC1` [Example 369, (2S,4S)-1-[2-[4-[(7-chloro-1,8-naphthyridin-3-yl)amino]-1-piperidyl]acetyl]-4-fluoro-pyrrolidine-2-carbonitrile], the IC50 is not below 10000 nM on DPP4 and 62.1 nM on Recombinant human FAP.
The like results for `CCOc1ccc(NC2CCN(CC(=O)N3CCC[C@H]3C#N)CC2)c2cccnc12` [Example 370, (2S)-1-[2-[4-[(8-ethoxy-5-quinolyl)amino]-1-piperidyl]acetyl]pyrrolidine-2-carbonitrile] were, in that order, 36800 nM and 11 nM.
For `CC(=O)N1CCc2c(NC3CCN(CC(=O)N4C[C@@H](F)C[C@H]4C#N)CC3)cccc21` [Example 373, (2S,4S)-1-[2-[4-[(1-acetylindolin-4-yl)amino]-1-piperidyl]acetyl]-4-fluoro-pyrrolidine-2-carbonitrile] the same measures were 2760 nM and 92.4 nM.
For `Cc1cc(NC2CCN(CC(=O)N3C[C@@H](F)C[C@H]3C#N)CC2)cc2cccnc12` [Example 374, (2S,4S)-4-fluoro-1-[2-[4-[(8-methyl-6-quinolyl)amino]-1-piperidyl]acetyl]pyrrolidine-2-carbonitrile] the same measures were 5670 nM and 31.6 nM.
For the molecule `N#C[C@@H]1C[C@H](F)CN1C(=O)CN1CCC(Nc2cc(F)c3ncccc3c2)CC1` [Example 375, (2S,4S)-4-fluoro-1-[2-[4-[(8-fluoro-6-quinolyl)amino]-1-piperidyl]acetyl]pyrrolidine-2-carbonitrile], the IC50 on DPP4 was determined as 6960 nM; at Recombinant human FAP, 22.9 nM.
The like results for `N#C[C@@H]1CCCN1C(=O)CN1CCC(Nc2cc(=O)oc3ccccc23)CC1` [Example 378, (2S)-1-[2-[4-[(2-oxochromen-4-yl)amino]-1-piperidyl]acetyl]pyrrolidine-2-carbonitrile] were, in that order, 24500 nM and 99.2 nM.
Take `N#C[C@@H]1C[C@H](F)CN1C(=O)CN1CCC(Nc2cc(=O)oc3ccccc23)CC1` [Example 379, (2S,4S)-4-fluoro-1-[2-[4-[(2-oxochromen-4-yl)amino]-1-piperidyl]acetyl]pyrrolidine-2-carbonitrile]: the results for the half-maximal inhibitory concentration (IC50) at DPP4 and on Recombinant human FAP were 3380 nM and 47.4 nM, respectively.
On to `N#C[C@@H]1C[C@H](F)CN1C(=O)CN1CCC(Nc2ccnc3cccnc23)CC1` [Example 380, (2S,4S)-4-fluoro-1-[2-[4-(1,5-naphthyridin-4-ylamino)-1-piperidyl]acetyl]pyrrolidine-2-carbonitrile], for which the 50% inhibitory concentration (IC50) on DPP4 was 8160 nM; at Recombinant human FAP, 77.1 nM.
In the case of `N#C[C@@H]1C[C@H](F)CN1C(=O)CN1CCC(Nc2ccc3nc(C(F)(F)F)ccc3c2)CC1` [Example 381, (2S,4S)-4-fluoro-1-[2-[4-[[2-(trifluoromethyl)-6-quinolyl]amino]-1-piperidyl]acetyl]pyrrolidine-2-carbonitrile], the 50% inhibitory concentration (IC50) stood at 10600 nM on DPP4 and 14.3 nM on Recombinant human FAP.
Regarding `COc1ccnc2ccc(NC3CCN(CC(=O)N4C[C@@H](F)C[C@H]4C#N)CC3)cc12` [Example 382, (2S,4S)-4-fluoro-1-[2-[4-[(4-methoxy-6-quinolyl)amino]-1-piperidyl]acetyl]pyrrolidine-2-carbonitrile], the concentration for half-maximal inhibition (IC50) on DPP4 is 3150 nM; on Recombinant human FAP, 80 nM.
